In publication PMC10882719 (Frontiers in Neuroscience, 2024):
Like-named read-outs stand apart in the source and are kept apart here.

Key:
Assay type in all cases: cell-based
[1] = molecular target: T1, 168 GPCRs (Homo sapiens, UniProt P35368); conditions: ADRA1B
T1 construct: host or cells: PathHunter cell lines
T1 sequence (P35368 1-520): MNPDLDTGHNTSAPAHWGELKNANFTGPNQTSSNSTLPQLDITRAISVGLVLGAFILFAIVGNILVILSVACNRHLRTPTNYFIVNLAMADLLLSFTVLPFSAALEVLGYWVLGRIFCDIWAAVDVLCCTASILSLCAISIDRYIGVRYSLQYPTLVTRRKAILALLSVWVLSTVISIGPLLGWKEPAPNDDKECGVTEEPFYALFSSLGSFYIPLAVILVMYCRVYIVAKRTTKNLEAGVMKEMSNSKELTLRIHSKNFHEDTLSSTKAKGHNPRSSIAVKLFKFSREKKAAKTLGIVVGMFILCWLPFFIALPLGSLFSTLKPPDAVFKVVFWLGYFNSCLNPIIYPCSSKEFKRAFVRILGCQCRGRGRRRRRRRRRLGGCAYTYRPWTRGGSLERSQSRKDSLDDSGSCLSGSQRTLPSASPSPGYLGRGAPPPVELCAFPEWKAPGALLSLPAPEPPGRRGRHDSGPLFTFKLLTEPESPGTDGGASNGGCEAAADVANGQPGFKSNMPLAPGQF

[2] = molecular target: T2, 168 GPCRs (Homo sapiens, UniProt P21554)
T2 construct: host or cells: PathHunter cell lines

[3] = molecular target: T3, 168 GPCRs (Homo sapiens, UniProt P51681)
T3 construct: host or cells: PathHunter cell lines

[4] = molecular target: T4, 168 GPCRs (Homo sapiens, UniProt P37288); conditions: AVPR1a
T4 construct: host or cells: PathHunter cell lines

[5] = molecular target: T5, 168 GPCRs (Homo sapiens, UniProt P32249)
T5 construct: host or cells: PathHunter cell lines

[6] = molecular target: T6, 168 GPCRs (Homo sapiens, UniProt P43115); conditions: PTGER3
T6 construct: host or cells: PathHunter cell lines
T6 sequence (P43115 1-390): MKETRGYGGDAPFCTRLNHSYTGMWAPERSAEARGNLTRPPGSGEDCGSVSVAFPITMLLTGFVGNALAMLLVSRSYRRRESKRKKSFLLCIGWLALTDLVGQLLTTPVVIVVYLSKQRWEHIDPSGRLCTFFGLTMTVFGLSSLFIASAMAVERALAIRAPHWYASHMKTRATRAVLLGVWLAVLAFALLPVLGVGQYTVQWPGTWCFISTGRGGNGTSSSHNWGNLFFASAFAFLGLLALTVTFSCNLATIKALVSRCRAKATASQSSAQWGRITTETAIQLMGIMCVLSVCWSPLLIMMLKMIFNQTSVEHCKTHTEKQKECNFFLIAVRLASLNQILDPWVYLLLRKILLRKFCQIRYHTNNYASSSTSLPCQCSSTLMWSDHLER

[7] = molecular target: T7, 168 GPCRs (Homo sapiens, UniProt P46663)
T7 construct: host or cells: PathHunter cell lines
T7 sequence (P46663 1-353): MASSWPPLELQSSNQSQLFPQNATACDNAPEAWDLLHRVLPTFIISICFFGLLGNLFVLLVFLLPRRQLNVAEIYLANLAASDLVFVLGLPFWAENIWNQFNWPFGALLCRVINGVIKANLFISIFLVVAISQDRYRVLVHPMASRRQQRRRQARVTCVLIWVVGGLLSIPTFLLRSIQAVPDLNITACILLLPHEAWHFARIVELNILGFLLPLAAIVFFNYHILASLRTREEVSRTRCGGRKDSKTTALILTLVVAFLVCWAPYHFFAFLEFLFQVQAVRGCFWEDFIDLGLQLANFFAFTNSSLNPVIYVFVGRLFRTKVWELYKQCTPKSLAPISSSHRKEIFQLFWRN

[8] = molecular target: T8, 168 GPCRs (Homo sapiens, UniProt P0DMS8)
T8 construct: host or cells: PathHunter cell lines
T8 sequence (P0DMS8 1-318): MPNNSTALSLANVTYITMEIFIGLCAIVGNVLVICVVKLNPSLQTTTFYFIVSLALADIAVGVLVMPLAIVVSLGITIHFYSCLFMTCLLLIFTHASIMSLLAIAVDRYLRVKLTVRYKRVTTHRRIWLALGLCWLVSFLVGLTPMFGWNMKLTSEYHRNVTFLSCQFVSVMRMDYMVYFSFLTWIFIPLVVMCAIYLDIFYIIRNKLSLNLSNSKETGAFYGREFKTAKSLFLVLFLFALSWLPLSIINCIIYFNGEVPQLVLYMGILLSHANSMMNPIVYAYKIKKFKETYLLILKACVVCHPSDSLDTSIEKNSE

T5 sequence (P32249 whole entry): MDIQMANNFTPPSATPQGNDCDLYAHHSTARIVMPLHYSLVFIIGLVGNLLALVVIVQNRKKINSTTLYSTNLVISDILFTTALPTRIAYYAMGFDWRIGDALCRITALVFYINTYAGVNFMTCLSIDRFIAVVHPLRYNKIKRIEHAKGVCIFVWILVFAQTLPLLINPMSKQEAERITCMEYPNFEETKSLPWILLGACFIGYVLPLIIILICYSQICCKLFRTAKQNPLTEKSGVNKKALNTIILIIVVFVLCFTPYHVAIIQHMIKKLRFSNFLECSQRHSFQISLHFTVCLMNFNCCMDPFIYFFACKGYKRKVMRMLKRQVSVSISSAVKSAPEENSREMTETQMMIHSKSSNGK
T2 sequence (P21554 whole entry): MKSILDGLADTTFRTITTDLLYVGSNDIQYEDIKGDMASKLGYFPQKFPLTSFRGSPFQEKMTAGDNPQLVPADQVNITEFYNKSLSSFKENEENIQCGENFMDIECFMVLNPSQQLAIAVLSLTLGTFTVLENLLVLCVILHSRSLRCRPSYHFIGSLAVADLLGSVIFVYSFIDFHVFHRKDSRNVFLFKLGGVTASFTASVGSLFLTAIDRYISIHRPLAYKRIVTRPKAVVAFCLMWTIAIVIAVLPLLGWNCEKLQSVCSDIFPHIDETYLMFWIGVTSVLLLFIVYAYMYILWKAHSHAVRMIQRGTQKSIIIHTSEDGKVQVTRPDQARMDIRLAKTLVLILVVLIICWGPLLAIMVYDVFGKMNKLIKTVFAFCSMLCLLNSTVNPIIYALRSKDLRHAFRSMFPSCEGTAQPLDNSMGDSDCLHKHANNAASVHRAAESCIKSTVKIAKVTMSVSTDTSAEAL
T4 sequence (P37288 whole entry): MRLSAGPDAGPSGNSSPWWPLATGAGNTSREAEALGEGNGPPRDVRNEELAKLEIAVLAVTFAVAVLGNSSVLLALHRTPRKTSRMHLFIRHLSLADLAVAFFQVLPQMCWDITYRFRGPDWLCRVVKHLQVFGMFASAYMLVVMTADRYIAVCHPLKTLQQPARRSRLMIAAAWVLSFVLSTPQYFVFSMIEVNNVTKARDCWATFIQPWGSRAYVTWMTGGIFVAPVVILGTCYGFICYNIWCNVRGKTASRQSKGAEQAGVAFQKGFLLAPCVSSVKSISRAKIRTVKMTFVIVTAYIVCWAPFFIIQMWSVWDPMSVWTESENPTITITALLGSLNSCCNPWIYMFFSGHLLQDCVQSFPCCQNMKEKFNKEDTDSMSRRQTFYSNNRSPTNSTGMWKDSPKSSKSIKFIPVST
T3 sequence (P51681 whole entry): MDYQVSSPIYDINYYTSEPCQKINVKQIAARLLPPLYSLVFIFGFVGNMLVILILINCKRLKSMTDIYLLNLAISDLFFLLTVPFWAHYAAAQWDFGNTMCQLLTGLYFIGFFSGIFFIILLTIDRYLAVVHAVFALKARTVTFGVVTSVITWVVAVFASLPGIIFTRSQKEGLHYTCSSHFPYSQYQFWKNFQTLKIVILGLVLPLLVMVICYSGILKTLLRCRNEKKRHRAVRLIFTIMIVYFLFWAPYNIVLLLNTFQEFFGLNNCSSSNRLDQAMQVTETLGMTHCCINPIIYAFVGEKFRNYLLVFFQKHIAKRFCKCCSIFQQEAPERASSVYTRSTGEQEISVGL

| Structure (SMILES) | % Agonist Activity ([1]; 1 uM) | % Antagonist Activity ([1]; 1 uM) | % Agonist Activity ([1]; 10 uM) | % Antagonist Activity ([1]; 10 uM) | % Agonist Activity ([2]; CNR1, 1 uM) | % Antagonist Activity ([2]; CNR1, 1 uM) | % Agonist Activity ([2]; CNR1, 10 uM) | % Antagonist Activity ([2]; CNR1, 10 uM) | % Agonist Activity ([3]; CCR5, 1 uM) | % Antagonist Activity ([3]; CCR5, 1 uM) | % Agonist Activity ([3]; CCR5, 10 uM) | % Antagonist Activity ([3]; CCR5, 10 uM) | % Agonist Activity ([4]; 1 uM) | % Antagonist Activity ([4]; 1 uM) | % Agonist Activity ([4]; 10 uM) | % Antagonist Activity ([4]; 10 uM) | % Agonist Activity ([5]; EBI2, 1 uM) | % Antagonist Activity ([5]; EBI2, 1 uM) | % Agonist Activity ([5]; EBI2, 10 uM) | % Antagonist Activity ([5]; EBI2, 10 uM) | other results |
| --- | --- | --- | --- | --- | --- | --- | --- | --- | --- | --- | --- | --- | --- | --- | --- | --- | --- | --- | --- | --- | --- |
| CNC(C)Cc1ccc2c(c1)OCO2 (stereo not shown) [MDMA, 3,4-Methylenedioxy methamphetamine, reference compound] | -1.6% | 18.7% | -1.6% | 35.1% | -0.5% | 7.8% | 0.1% | 11.2% | 0.2% | 4.5% | 0.1% | 9.8% | -0.2% | -3.6% | -0.4% | 4.5% | 0.6% | 4.4% | -0.4% | 7.9% | % Agonist Activity ([6]; Conc 1 uM): 3.5%; % Antagonist Activity ([6]; Conc 1 uM): 5.2%; % Agonist Activity ([6]; Conc 10 uM): 3.6%; % Antagonist Activity ([6]; Conc 10 uM): 4.2%; % Agonist Activity ([7]; BDKRB1, 1 uM): -1.2%; % Antagonist Activity ([7]; BDKRB1, 1 uM): -17.1%; % Agonist Activity ([7]; BDKRB1, 10 uM): -0.2%; % Antagonist Activity ([7]; BDKRB1, 10 uM): -12.7%; % Agonist Activity ([8]; ADORA3, 1 uM): 0.7%; % Antagonist Activity ([8]; ADORA3, 1 uM): -15.4%; % Agonist Activity ([8]; ADORA3, 10 uM): 0.6%; % Antagonist Activity ([8]; ADORA3, 10 uM): -11.5% |
| CNC(C)C(=O)c1ccc2c(c1)OCO2 (stereo not shown) [methylone] | -3.3% | 17.9% | -2.9% | 20.6% | -0.4% | -3.5% | -2.7% | -17.1% | -0.1% | 1.7% | 0.3% | -0.5% | -0.6% | -3% | -0.5% | 2.8% | 0.5% | 0.6% | -0.1% | -2.6% | % Agonist Activity ([6]; Conc 1 uM): 4.5%; % Antagonist Activity ([6]; Conc 1 uM): -6.2%; % Agonist Activity ([6]; Conc 10 uM): 1.9%; % Antagonist Activity ([6]; Conc 10 uM): -5.7%; % Agonist Activity ([7]; BDKRB1, 1 uM): -1.7%; % Antagonist Activity ([7]; BDKRB1, 1 uM): 2.8%; % Agonist Activity ([7]; BDKRB1, 10 uM): -2.5%; % Antagonist Activity ([7]; BDKRB1, 10 uM): 12.1%; % Agonist Activity ([8]; ADORA3, 1 uM): -4.5%; % Antagonist Activity ([8]; ADORA3, 1 uM): 11.3%; % Agonist Activity ([8]; ADORA3, 10 uM): -5.3%; % Antagonist Activity ([8]; ADORA3, 10 uM): 7.7% |
